From US5968751A, “Method for detecting the presence of protein C antibody in a fluid sample” (The Scripps Research Institute, priority 1997, dated 1999)
pIC50: −log10 of the molar value. No end group written: not given here.

What was measured:
Format in all cases: biochemical
thrombin = thrombin (Homo sapiens, UniProt P00734); assay: clotting of purified fibrinogen by thrombin
APC [1] = target: T1, APC (Homo sapiens, UniProt P04070); assay: inhibition of APC by recombinant mutant (Arg358)-α1-antitrypsin, time course; set-up: Protein C consists of a 155 amino acid residue light chain and a 262 amino acid residue heavy chain; from tissue; alpha1-AT mutant from Transgene, Strasbourg; conditions: 250 μM PC311-325, 500 μM PC142-155; 18 nM APC, 100 nM α1-AT
Protocol: Kinetic studies of inhibition of APC were performed with the higher affinity mutant α1 -AT pseudo-substrate. For the assay, 60 μl of 36 nM APC and/or 60 μl of 200 nM recombinant (Arg^358)-α1 -AT prepared in TBS-BSA at pH 7.4 containing 0.02% NaN3 and 2 mM CaCl2 were separately admixed with 500 μM PC311-325 or 1 mM PC142-155 and maintained for 30 minutes at 37° C. to form APC-peptide and/or α1 -AT-peptide admixtures for each peptide tested, respectively. Thereafter, the peptide-treated APC and α1 -AT admixtures were combined to form a reaction admixture. At selected time points, 8 μl aliquots from the reaction admixture were removed and admixed with 300 μl 0.8 mM S-2366 in TBS-BSA at pH 8.0 containing 0.02% NaN3 to initiate the hydrolysis of S-2366 by APC. The change in absorbance was measured over time as described in the amidolytic assay. […]
Since the number of amino acid residues involved in neutralization of APC by macromolecular plasma protease inhibitors is likely to be higher than the number of residues of APC involved in the cleavage of a small chromogenic substrate such as S-2366, the effect of anti-PC317-331 antibody on the time course of inhibition of APC by a larger pseudo-substrate, such as recombinant mutant (Arg^358)-α1 -AT was evaluated. […] The change in absorbance was measured over time as described in the amidolytic assay. […]
Target sequence in this assay (P04070 43-197): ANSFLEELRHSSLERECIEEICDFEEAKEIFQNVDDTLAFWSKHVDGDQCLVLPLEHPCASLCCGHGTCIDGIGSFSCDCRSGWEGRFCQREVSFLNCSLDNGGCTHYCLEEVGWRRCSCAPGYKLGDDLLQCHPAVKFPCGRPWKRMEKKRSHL
Target sequence in this assay (P04070 212-461): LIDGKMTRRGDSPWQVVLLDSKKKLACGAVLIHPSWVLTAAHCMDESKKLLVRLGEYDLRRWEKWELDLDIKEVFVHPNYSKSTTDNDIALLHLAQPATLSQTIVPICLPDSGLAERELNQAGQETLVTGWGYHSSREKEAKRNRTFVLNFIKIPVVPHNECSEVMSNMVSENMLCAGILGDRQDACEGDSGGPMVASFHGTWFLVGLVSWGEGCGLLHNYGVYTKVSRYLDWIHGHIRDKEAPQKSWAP

APC [2] = target: T1, APC; assay: Xa-1-stage coagulation assay, inhibition of APC anticoagulant activity; set-up: Protein C consists of a 155 amino acid residue light chain and a 262 amino acid residue heavy chain; from tissue; host or cells: human plasma factor IX concentrate
Protocol: For testing the inhibition of the synthetic peptides on APC activity described above, Xa-1-stage coagulation assays were also performed as described. See Seegers et al., Thrombosis Res., 13:233-243 (1978); Marlar et al., supra; and Walker et al., J. Biol. Chem., 265:1484-1489 (1990). PC heavy chain-derived peptides listed below in Table 6 and PC light chain-derived peptides listed below in Table 7 were prepared as described above and separately admixed for a final concentration of 2 mM with 120 nM APC in 100 μl of TBS-BSA at pH 7.4 to form separate peptide-APC admixtures. The resulting admixtures were maintained for ten minutes at 37° C. Separate aliquots of peptides maintained under the same conditions in the absence of APC served as controls for the inhibitory effect of synthetic peptides on APC anticoagulant activity. After the maintenance period, 100 μl of NHP and 100 μl of 200 μg/ml of rabbit brain cephalin (Sigma) were admixed into each peptide admixture and maintained for 200 seconds at 37° C. to form pre-coagulation admixtures. In some experiments, Factor VIII deficient plasma (George King Bio-Medical, Inc.) was used in the place of NHP to determine the effect of Factor VIII on the assay system. Coagulation was then initiated by the admixture of 100 μl of 0.62 nM human activated Factor X (Xa) (Enzyme Research Laboratories, Southbend, Ind.) in TBS-BSA containing 30 mM CaCl2 prewarmed to 37° C. to each of the pre-coagulation admixtures.
The time for clot formation was measured by an Electra 700 Automatic Coagulation Timer (Medical Laboratory Automation, Inc., Mount Vernon, N.Y.). Each peptide's effect was determined in duplicate. The results of the inhibition of APC anticoagulant activity by synthetic peptides as measured in Xa-1-stage coagulation assays are presented in Tables 6 and 7 below with the APTT assay results and are presented as the mean values obtained with APTT assays. Data for results with PC heavy chain-derived peptides are shown in Table 6 and data for results with PC light chain-derived peptides are shown in Table 7.
The results of inhibition of APC anticoagulant activity by PC light chain-derived peptides in a Xa-1 stage coagulation assay are shown in Table 7. The assay was performed in the presence of NHP. Peptides used in the assay were prepared as described in Example 1 and are listed in Table 7 by their corresponding residue positions in native PC protein (SEQ ID NO 1). For all peptides except PC142-155 used in the Xa-1 stage assays listed in Table 7, cysteine residues in the native PC amino acid residue sequence were substituted by either serine or glycine in the synthesized peptide. This was done to prevent multiple disulfide formation and subsequent potential polymerization among peptides with multiple cysteines. […]
Target sequence in this assay (P04070 43-197 limits assumed): as the sequence (P04070 43-197) above
Target sequence in this assay (P04070 212-450 limits assumed): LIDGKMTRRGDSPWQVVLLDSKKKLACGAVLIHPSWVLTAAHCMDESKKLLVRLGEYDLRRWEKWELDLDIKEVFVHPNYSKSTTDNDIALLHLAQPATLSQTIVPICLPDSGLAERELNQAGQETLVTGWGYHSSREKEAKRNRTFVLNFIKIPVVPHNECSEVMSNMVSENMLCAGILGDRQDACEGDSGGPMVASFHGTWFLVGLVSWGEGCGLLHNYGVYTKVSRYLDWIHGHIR

In the case of “KRNRTFVLNFIKIPV-NH2 [PC311-325, Lys-Arg-Asn-Arg-Thr-Phe-Val-Leu-Asn-Phe-Ile-Lys-Ile-Pro-Val]”, the “effect on the clotting of purified fibrinogen by thrombin” value (thrombin) was “no effect” and the “effect on the time course of inhibition of APC by recombinant (Arg358)α1-AT” value (APC [1]) was “did not have any significant effect”.

In the case of `CSCC[C@H](NC(=O)[C@H](CCCNC(=N)N)NC(=O)[C@H](CCCCN)NC(=O)[C@H](Cc1c[nH]c2ccccc12)NC(=O)[C@@H]1CCCN1C(=O)[C@H](CCCNC(=N)N)NC(=O)CN)C(=O)N[C@@H](CCC(=O)O)C(=O)N[C@@H](CCCCN)C(=O)N[C@@H](CCCCN)C(=O)N[C@@H](CCCNC(=N)N)C(=O)N[C@@H](CO)C(=O)N[C@@H](Cc1c[nH]cn1)C(=O)N[C@@H](CC(C)C)C(=O)N[C@@H](CS)C(N)=O` [PC142-155, Gly-Arg-Pro-Trp-Lys-Arg-Met-Glu-Lys-Lys-Arg-Ser-His-Leu], the pIC50 (APC [2]; Xa-1-stage assay in NHP, read-out: 50% inhibition of APC anticoagulant activity) was 4.60 and the inhibition at 500 µM (APC [2]; final peptide concentration 500 μM, NHP, 0 = no observable effect +10%) was 80%.

In the case of “MHKLREGKWRPKSR [Scrambled peptide, reference compound]”, the “effect on the clotting of purified fibrinogen by thrombin” value (thrombin) was “no effect” and the “inhibition of APC anticoagulant activity” value (APC [2]; Xa-1-stage assay) was “very little if any significant inhibition”.
